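These data come from cells grown in 96-well plates and exposed to compound for 48 hours at five concentrations. At the GI50, growth is halved.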 Active and inactive are the calls of the source. Rule as the data show it: active = GI50 up to about 1.1 µM and inactive = higher.
What was measured:
Assay in all cases: NCI-60 cell line screen, 48 h
MCF7 = system: MCF7
NCI-H226 = system: NCI-H226
DMS-114 = system: DMS-114
KM-20L2 = system: KM-20L2
CAKI-1 = system: CAKI-1
M14 = system: M14
HT-29 = system: HT-29
IGROV-1 = system: IGROV-1
ACHN = system: ACHN
DMS-273 = system: DMS-273
OVCAR-5 = system: OVCAR-5
OVCAR-4 = system: OVCAR-4
SK-MEL-5 = system: SK-MEL-5
SK-MEL-2 = system: SK-MEL-2
KM12 = system: KM12
SF-539 = system: SF-539
LXFL 529 = system: LXFL 529
SK-OV-3 = system: SK-OV-3
OVCAR-8 = system: OVCAR-8
HOP-92 = system: HOP-92
A549 = system: A549
SNB-78 = system: SNB-78
HOP-18 = system: HOP-18
MDA-MB-435 = system: MDA-MB-435
HCT-116 = system: HCT-116
XF498 = system: XF498
SW-620 = system: SW-620
HCC 2998 = system: HCC 2998
SF-268 = system: SF-268
PC-3 = system: PC-3
CCRF-CEM = system: CCRF-CEM
NCI-H460 = system: NCI-H460
786-0 = system: 786-0
SF-295 = system: SF-295
DLD-1 = system: DLD-1
SN12C = system: SN12C
SNB-19 = system: SNB-19
SNB-75 = system: SNB-75
HOP-62 = system: HOP-62
BT-549 = system: BT-549
A498 = system: A498
K562 = system: K562
M19-MEL = system: M19-MEL
RPMI-8226 = system: RPMI-8226
MDA-MB-231 = system: MDA-MB-231
UACC-62 = system: UACC-62
MOLT-4 = system: MOLT-4
U-251 = system: U-251
RXF 393 = system: RXF 393
Malme-3M = system: Malme-3M
NCI-H522 = system: NCI-H522
TK-10 = system: TK-10
UO-31 = system: UO-31
SR = system: SR
EKVX = system: EKVX
HCT-15 = system: HCT-15
LOX IMVI = system: LOX IMVI
UACC-257 = system: UACC-257
DU-145 = system: DU-145
NCI/ADR-RES = system: NCI/ADR-RES
RXF 631 = system: RXF 631
NCI-H23 = system: NCI-H23
HL-60 = system: HL-60
SK-MEL-28 = system: SK-MEL-28
T47D = system: T47D
OVCAR-3 = system: OVCAR-3
MDA-N = system: MDA-N
COLO 205 = system: COLO 205
Hs-578T = system: Hs-578T

**Q.** What does the source list for COc1cccc2c1C(=O)c1c(O)c3c(c(O)c1C2=O)C[C@@](O)(C(=O)CO)CC3OC1CC(O)C(O)C(C)O1 (stereo not given in full)?
**A.** GI50 (MCF7): < 10 nM (active); GI50 (NCI-H226): 21.8 nM (active); GI50 (DMS-114): 188 nM (active); GI50 (KM-20L2): 592 nM (active); GI50 (CAKI-1): 185 nM (active); GI50 (M14): 361 nM (active); GI50 (HT-29): 354 nM (active); GI50 (IGROV-1): 333 nM (active); GI50 (ACHN): 52.7 nM (active); GI50 (DMS-273): 33 nM (active); GI50 (OVCAR-5): 424 nM (active); GI50 (OVCAR-4): 1010 nM (active); GI50 (SK-MEL-5): 142 nM (active); GI50 (SK-MEL-2): 608 nM (active); GI50 (KM12): 350 nM (active); GI50 (SF-539): < 35.8 nM (active); GI50 (LXFL 529): 461 nM (active); GI50 (SK-OV-3): 235 nM (active); GI50 (OVCAR-8): 256 nM (active); GI50 (HOP-92): 138 nM (active); GI50 (A549): 104 nM (active); GI50 (SNB-78): 1280 nM (inactive); GI50 (HOP-18): 277 nM (active); GI50 (MDA-MB-435): 834 nM (active); GI50 (HCT-116): 55.3 nM (active); GI50 (XF498): 102 nM (active); GI50 (SW-620): 145 nM (active); GI50 (HCC 2998): 562 nM (active); GI50 (SF-268): 210 nM (active); GI50 (PC-3): 274 nM (active); GI50 (CCRF-CEM): 21.7 nM (active); GI50 (NCI-H460): < 10 nM (active); GI50 (786-0): 103 nM (active); GI50 (SF-295): 104 nM (active); GI50 (DLD-1): 385 nM (active); GI50 (SN12C): 115 nM (active); GI50 (SNB-19): 82.2 nM (active); GI50 (SNB-75): 167 nM (active); GI50 (HOP-62): 14.6 nM (active); GI50 (BT-549): 279 nM (active); GI50 (A498): 171 nM (active); GI50 (K562): 239 nM (active); GI50 (M19-MEL): 218 nM (active); GI50 (RPMI-8226): 199 nM (active); GI50 (MDA-MB-231): 565 nM (active); GI50 (UACC-62): 125 nM (active); GI50 (MOLT-4): 20.2 nM (active); GI50 (U-251): 67.9 nM (active); GI50 (RXF 393): 238 nM (active); GI50 (Malme-3M): 141 nM (active); GI50 (NCI-H522): 211 nM (active); GI50 (TK-10): 792 nM (active); GI50 (UO-31): 421 nM (active); GI50 (SR): < 10 nM (active); GI50 (EKVX): 1720 nM (inactive); GI50 (HCT-15): 397 nM; GI50 (LOX IMVI): 108 nM (active); GI50 (UACC-257): 453 nM (active); GI50 (DU-145): 29.4 nM (active); GI50 (NCI/ADR-RES): 1130 nM (inactive); GI50 (RXF 631): 188 nM (active); GI50 (NCI-H23): 87.9 nM (active); GI50 (HL-60): 26.7 nM (active); GI50 (SK-MEL-28): 789 nM (active); GI50 (T47D): 286 nM (active); GI50 (OVCAR-3): 583 nM (active); GI50 (MDA-N): 562 nM (active)

**Q.** For CCn1c2c(n(CC)c1=S)-c1c(n(CC)c(=S)n1CC)SSSS2, which GI50 (MCF7) is on record?
**A.** 16000 nM (inactive)

**Q.** And the GI50 (NCI-H226)?
**A.** 31800 nM (inactive)

**Q.** What about the GI50 (DMS-114) of the same molecule?
**A.** 15800 nM (inactive)

**Q.** What about the GI50 (KM-20L2) of the same molecule?
**A.** 11600 nM (inactive)

**Q.** And the GI50 (CAKI-1)?
**A.** 17900 nM (inactive)

**Q.** What about the GI50 (M14) of the same molecule?
**A.** 6350 nM (inactive)

**Q.** And the GI50 (HT-29)?
**A.** 11700 nM (inactive)

**Q.** What about the GI50 (IGROV-1) of the same molecule?
**A.** 17800 nM (inactive)

**Q.** What about the GI50 (ACHN) of the same molecule?
**A.** 5020 nM (inactive)

**Q.** And the GI50 (DMS-273)?
**A.** 17500 nM (inactive)

**Q.** What about the GI50 (OVCAR-5) of the same molecule?
**A.** 17300 nM (inactive)

**Q.** And the GI50 (OVCAR-4)?
**A.** 9530 nM (inactive)

**Q.** And the GI50 (SK-MEL-5)?
**A.** 27000 nM (inactive)

**Q.** What about the GI50 (SK-MEL-2) of the same molecule?
**A.** 16600 nM (inactive)

**Q.** What about the GI50 (KM12) of the same molecule?
**A.** 19200 nM (inactive)

**Q.** And the GI50 (SF-539)?
**A.** 12200 nM (inactive)

**Q.** And the GI50 (LXFL 529)?
**A.** 2100 nM (inactive)

**Q.** And the GI50 (SK-OV-3)?
**A.** > 67300 nM (inactive)

**Q.** And the GI50 (OVCAR-8)?
**A.** 8770 nM (inactive)

**Q.** What about the GI50 (HOP-92) of the same molecule?
**A.** 3330 nM (inactive)

**Q.** What about the GI50 (A549) of the same molecule?
**A.** 36700 nM (inactive)

**Q.** What about the GI50 (SNB-78) of the same molecule?
**A.** 11400 nM (inactive)

**Q.** What about the GI50 (HOP-18) of the same molecule?
**A.** 8850 nM (inactive)

**Q.** And the GI50 (MDA-MB-435)?
**A.** 13300 nM (inactive)

**Q.** What about the GI50 (HCT-116) of the same molecule?
**A.** 3400 nM (inactive)

**Q.** What about the GI50 (XF498) of the same molecule?
**A.** 1520 nM (inactive)

**Q.** What about the GI50 (SW-620) of the same molecule?
**A.** 1670 nM (inactive)

**Q.** And the GI50 (HCC 2998)?
**A.** 25400 nM (inactive)

**Q.** What about the GI50 (SF-268) of the same molecule?
**A.** 21100 nM (inactive)

**Q.** And the GI50 (PC-3)?
**A.** > 10000 nM (inactive)

**Q.** And the GI50 (COLO 205)?
**A.** 5530 nM (inactive)

**Q.** And the GI50 (CCRF-CEM)?
**A.** 1240 nM (inactive)

**Q.** What about the GI50 (NCI-H460) of the same molecule?
**A.** 53700 nM (inactive)

**Q.** And the GI50 (Hs-578T)?
**A.** 308 nM (active)

**Q.** And the GI50 (786-0)?
**A.** 16700 nM (inactive)

**Q.** What about the GI50 (SF-295) of the same molecule?
**A.** 40700 nM (inactive)

**Q.** What about the GI50 (DLD-1) of the same molecule?
**A.** 1630 nM (inactive)

**Q.** What about the GI50 (SN12C) of the same molecule?
**A.** 11200 nM (inactive)

**Q.** What about the GI50 (SNB-19) of the same molecule?
**A.** > 84100 nM (inactive)

**Q.** And the GI50 (SNB-75)?
**A.** 1910 nM (inactive)

**Q.** And the GI50 (HOP-62)?
**A.** > 100000 nM (inactive)

**Q.** And the GI50 (BT-549)?
**A.** 15400 nM (inactive)

**Q.** And the GI50 (A498)?
**A.** 37500 nM (inactive)

**Q.** What about the GI50 (K562) of the same molecule?
**A.** 1030 nM (active)

**Q.** What about the GI50 (M19-MEL) of the same molecule?
**A.** 7780 nM (inactive)

**Q.** And the GI50 (RPMI-8226)?
**A.** 2820 nM (inactive)

**Q.** And the GI50 (MDA-MB-231)?
**A.** 2180 nM (inactive)

**Q.** What about the GI50 (UACC-62) of the same molecule?
**A.** 10700 nM (inactive)

**Q.** What about the GI50 (MOLT-4) of the same molecule?
**A.** 2310 nM (inactive)

**Q.** What about the GI50 (U-251) of the same molecule?
**A.** 22200 nM (inactive)

**Q.** And the GI50 (RXF 393)?
**A.** 1360 nM (inactive)

**Q.** And the GI50 (Malme-3M)?
**A.** 2830 nM (inactive)

**Q.** What about the GI50 (NCI-H522) of the same molecule?
**A.** 1880 nM (inactive)

**Q.** And the GI50 (TK-10)?
**A.** 15200 nM (inactive)

**Q.** What about the GI50 (UO-31) of the same molecule?
**A.** 12700 nM (inactive)

**Q.** What about the GI50 (SR) of the same molecule?
**A.** 1690 nM (inactive)

**Q.** What about the GI50 (EKVX) of the same molecule?
**A.** 14500 nM (inactive)

**Q.** What about the GI50 (HCT-15) of the same molecule?
**A.** 4490 nM

**Q.** What about the GI50 (LOX IMVI) of the same molecule?
**A.** 9790 nM (inactive)

**Q.** And the GI50 (UACC-257)?
**A.** 8570 nM (inactive)

**Q.** And the GI50 (DU-145)?
**A.** > 100000 nM (inactive)

**Q.** What about the GI50 (RXF 631) of the same molecule?
**A.** 15300 nM (inactive)

**Q.** What about the GI50 (NCI-H23) of the same molecule?
**A.** 8750 nM (inactive)

**Q.** And the GI50 (HL-60)?
**A.** 2900 nM (inactive)

**Q.** And the GI50 (SK-MEL-28)?
**A.** 7310 nM (inactive)

**Q.** What about the GI50 (T47D) of the same molecule?
**A.** 1630 nM (inactive)

**Q.** What about the GI50 (OVCAR-3) of the same molecule?
**A.** 7230 nM (inactive)

**Q.** And the GI50 (MDA-N)?
**A.** > 10000 nM (inactive)

Reference: ChEMBL document CHEMBL1201862, “PubChem BioAssay data set” (2004)
